This is an account of results in EP1955072B1, “FLEXIBLE CARBOHYDRATE-BEARING POLYMER” (PreciSense A/S, priority 2005, dated 2007).

Test [1] has as its target T1, biotinylated MBL (Mannan Binding Lectin) (Homo sapiens, UniProt P11226). As to the kind of experiment: ELLA (Enzyme Linked Lectin Assay), glucose inhibition of MBL binding to coated antigen, Examples C3/C5. As to conditions: glucose as inhibitor, 1.25 mM CaCl2, value only valid for this particular assay. How it is done: The wells were then washed (2 x 200 µl TBS).
Plates were then emptied and washed (3 x 200 µl TBS). […] The results are shown in the graphs in Fig. 1. High absorptions correspond to binding of MBL to the ligand. Baseline absorption corresponds to no binding of MBL to the ligand. […] Therefore, in an optimization step (Example C4) a range of mannose co-polymers having mannose monomer unit contents within the range of 30 % to 50 % were synthesized.
An ELLA assay was carried out as described in Example C3. […] From the inhibition curves, it is possible to calculate an IC50 value for aminodextran and the optimized ligand (Table 6). (The IC50 value is only valid for this particular assay.) TABLE 6

The target in test [2] is T1, biotinylated MBL (Mannan Binding Lectin). The test can be described thus: ELLA (Enzyme Linked Lectin Assay), glucose inhibition of MBL binding to coated antigen, Examples A8/A8a. As for the experimental part: Biotinylated MBL was prepared as follows. Biotin-NHS (20 µl, 7 mg/ml in DMSO, -10-15 eq. per MBL monomer) was added to a solution of MBL (3 ml, 0.53 mg) in PBS (3 mL). The solution was gently stirred for 2 h, then transferred to a dialysis tube (MWCO 10-12K) and dialysed against TBS (2 × 1 L) over the course of 24 h. The resulting biotinylated MBL (0.2 mg/ml) in TBS was used without further purification.
The wells were then washed (2x200 µl PBS). ConA-HRP 1% (w/v)(100 µl) in PBS was added and incubated for 1 h. Plates were then emptied and washed (3x200 µl PBS). […] The wells were then washed (2x200 µl TBS). […] Plates were then emptied and washed (3x200 µl TBS).

T1 sequence (P11226 21-248): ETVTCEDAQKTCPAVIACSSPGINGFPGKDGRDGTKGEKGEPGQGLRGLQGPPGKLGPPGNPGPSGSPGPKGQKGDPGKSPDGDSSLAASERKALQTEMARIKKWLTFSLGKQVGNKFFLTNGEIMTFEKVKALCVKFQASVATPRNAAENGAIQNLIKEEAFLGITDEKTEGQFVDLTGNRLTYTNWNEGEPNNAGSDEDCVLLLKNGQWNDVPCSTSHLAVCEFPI

As a reminder, the IC50 is the midpoint of a concentration-inhibition curve. Consider `OC[C@H]1OC(O)[C@H](O)[C@@H](O)[C@@H]1O` (stereo partly drawn) [glucose], for which the concentration for half-maximal inhibition (IC50) in test [1] (coated antigen: 35 mol% Man Copolymer) is 13 mM; in test [1] (coated antigen: Aminodextran), 23 mM; in test [2] (coated antigen: AmDex 150K (aminodextran), dilutions of glucose 100 mM to 0 mM, read-out: MBL affinity (IC50) or Abs(0 mM Glc)) it was 9.7 mM; in test [2] (coated antigen: Polymer of Example A4a, dilutions of glucose 100 mM to 0 mM, read-out: MBL affinity (IC50) or Abs (0 mM Glc)), 50 to 80 mM; in test [2] (glucose inhibiting MBL binding to plate coated with 40 mol% mannose polymer of Example A4 (Example A8), TBS, 1.25 mM CaCl2, pH 7.4, read-out: IC50), 16.8 mM; in test [2] (glucose inhibiting MBL binding to plate coated with 80 mol% mannose polymer of Example A4a, TBS, 1.25 mM CaCl2, pH 7.4, read-out: IC50) it was 50 to 80 mM.
